Where two headings read alike, the source gives them in different places.
Experiments:
[1] = tested on: human keratinocyte cell line HaCaT cells; experiment: MTT assay, cytotoxicity in human keratinocyte cell line; type: cell-based; details: for Cell viability: 24 hours, con = 100, in %
Method: Firstly, the cytotoxicity is measured by the MTT assay. Phytosphingosine (PS), phytosphingosine-HCl (PS-HCl), C6-phytosphingosine (C6-PS), CLA-phytosphingosine (CLA-PS), tetraacetyl phytosphingosine (TAPS), and N-acetyl phytosphingosine (NAPS) are dissolved into DMSO to have the final concentration of 1-100 μM.
In order to study the effects of the compositions of the present invention on the cytotoxicity in the human keratinocyte cell line HaCaT cells, the cell viability is analyzed by the MTT (3-[4,5-dimethylthiazol-2-yl]-2,5-diphenyltetrazolium bromide) assay. HaCaT cells are supplied by Professor N. Fuseng of German Cancer Research in Germany. HaCaT cells are seeded in a density of 1×10^6 cells in a […] and cultured in DMEM (Dulbecco's Modified Eagle Medium) containing 10% fetal bovine serum (FBS, GIBCO), 100 units/ml penicillin, and 100 μg/ml streptomycin for 48 hours. They are treated with trypsin and 1-2×10^4 cells per well are seeded again in a 96-well plate by using a serum-free culture medium, about 3 hours after which they are cultured by treatment with phytosphingosine derivatives. After they are cultured for 24 hours, the MTT reagent is added at a concentration of 2 mg/ml, cultured for 4 hours, suspended in DMSO after removing the culture medium completely in order to measure O.D. at 540 nm. C2-ceramide is used for comparison.

[2] = MTT assay, cytotoxicity in human skin cancer cell line; type: cell-based; details: human, Cell viability
Summary of the method: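 A431 cells were seeded in serum-free medium and, about 3 h later, treated 24 h with phytosphingosine derivatives at final 1–100 μM (DMSO vehicle). MTT (2 mg/ml) was then added for 4 h, and the formazan was dissolved in DMSO and read at 540 nm for viability. C2-ceramide served as comparator.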

[3] = MTT assay, combined treatment with UVB irradiation; type: cell-based, human; details: human, HaCaT cells, HaCaT, read-out: Cell viability
Summary of the method: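 HaCaT cells in PBS irradiated with 200 J/m^2 UVB, then returned to DMEM and treated with test compounds for 24 h. Viability by MTT (2 mg/ml, 4 h), formazan dissolved in DMSO and read at 540 nm.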

caspase-3 = experiment: Immunoblot analysis of active caspase-3; type: cell-based, human; details: HaCaT, FIG. 11; for time to maximum active caspase-3: after treatment; for maximum increase of active caspase-3 (expression of induction): immunoblot
Method: In the confirmation of apoptosis-related proteins, the immunoblot analysis is performed in order to look into the effects of the compositions of the present invention on the expression of caspase-3, p53, and Chk1 proteins related to the induction of apoptosis.
HaCaT cells are cultured on a 100-mm dish and collected at the indicative time. The proteins are extracted by adding 500 μl of RIPA lysis buffer (1% Nonidet P-40, 1% sodium deoxycholate, 0.1% SDS, […], 0.01 M sodium phosphate, pH 7.2, 2 mM EDTA, 50 mM sodium fluoride and 0.2 mM sodium vanadate), and the concentration is measured by using the Bradford method. 1
Extracted proteins is electrophoresed on 12% polyacrylamide gel, and they are transferred to the nitrocellulose membrane. The membrane blocked with 5% non-fat milk is reacted with the primary antibodies (caspase-3, p53, and Chk1), washed, and reacted with the secondary HRP-conjugated antibody. The intensity of proteins is analyzed by using the ECL kit.

HaCaT cells = experiment: Cell cycle by flow cytometric analysis; type: cell-based, human; details: FIG. 8
Method: The effects of the compositions of the present invention on the cell cycle are reviewed. In the flow cytometric analysis, the cells are treated with trypsin according to each time interval, collected and washed with PBS. They are fixed by using 80% ethanol, and propidium iodide and RNase are added to them. Thereafter, the cell cycle is analyzed by using a flow cytometer.

apoptosis-related genes = experiment: Apoptosis array kit, gene expression; type: cell-based; details: 30 μM, 24 hours, FIG. 10
Method: Firstly, in order to look into the genes involved in apoptosis induced by the compositions of the present invention, TAPS is treated at the dose of 30 μM for 24 hours, from which mRNA is isolated. Then it is observed by using an apoptosis array kit.
The labeled cDNA is synthesized by using apoptosis-specific primers offered by Human Apoptosis Expression Assay (R&D System, Minneapolis, Minn.), which is used for a probe in incubation with 2 μg of the total RNA at 65° C. overnight. It is then washed with Washing Solution I (0.5×SSPE, 1% (w/v) SDA) three times at a room temperature and with Washing Solution II ([…]) for 1 hour at 65° C. The washed membranes are exposed to X-ray films at […], and developed.

For CCCCCCCCCCCCCC[C@@H](O)[C@@H](O)[C@H](CO)NC(C)=O [NAPS, N-acetyl phytosphingosine], the cytotoxicity ([1]; human, 24 h, 30 μM) was 83%, the viability at 24 h, 3 µM [2] was 100 ± 10.2% and the viability at 24 h, 10 µM [2] was 75 ± 6.9%. The viability at 24 h, 30 µM [2] was 31 ± 10%, the viability at 24 h, 50 µM [2] was 1 ± 0.2% and the viability at 24 h, 1 µM ([3]; 1 μM + UVB 200 J/m^2, 24 hours) was 27 ± 5.8%. It also gave a viability at 24 h, 1 µM ([3]; 1 μM, no UVB, 24 hours) of 130 ± 10%, a viability at 24 h, 3 µM ([3]; 3 μM + UVB 200 J/m^2, 24 hours) of 17 ± 1.6% and a viability at 24 h, 3 µM ([3]; 3 μM, no UVB, 24 hours) of 117 ± 9.7%. It also gave a viability at 24 h, 5 µM ([3]; 5 μM + UVB 200 J/m^2, 24 hours) of 11 ± 1.3%, a viability at 24 h, 5 µM ([3]; 5 μM, no UVB, 24 hours) of 110 ± 14% and a viability at 24 h, 10 µM ([3]; 10 μM + UVB 200 J/m^2, 24 hours) of 1 ± 0.1%. For the same compound, the viability at 24 h, 10 µM ([3]; 10 μM, no UVB, 24 hours) was 67 ± 12%, the “time after treatment at which cleavage to active caspase-3 is increased significantly” value (caspase-3) was 30 min and the “time for which increased active caspase-3 is maintained” value (caspase-3) was 12 h. The “time to maximum active caspase-3” value (caspase-3) was at most 3 h and the “maximum increase of active caspase-3 (expression of induction)” value (caspase-3) was 6 folds.
Work on tetraacetyl phytosphingosine [TAPS] yielded a Cell viability ([1]; 1 μM, HaCaT) of 94 ± 0.1, a Cell viability ([1]; 3 μM, HaCaT) of 93 ± 2.9 and a Cell viability ([1]; 10 μM, HaCaT) of 76 ± 1.4. For the same compound, the Cell viability ([1]; 30 μM, HaCaT) was 17 ± 1.1, the cytotoxicity ([1]; 30 μM, HaCaT) was 83% and the “time for which increased active caspase-3 is maintained” value (caspase-3) was 24 h. For the same compound, the “time to maximum active caspase-3” value (caspase-3) was at most 3 h, the “maximum increase of active caspase-3 (expression of induction)” value (caspase-3) was 5 folds and the G2/M phase (HaCaT cells; thereafter up to 24 hours) was “reduced continuously”. For the same compound, the “sub G1 phase (apoptotic cells)” value (HaCaT cells; thereafter up to 24 hours) was “increased relatively”, the G2/M phase (HaCaT cells; up to 12 hours after treating) was “increased relatively” and the S phase (HaCaT cells; up to 12 hours after treating) was “reduced”. For the same compound, the “expression of Bcl-10” value (apoptosis-related genes) was “increased”, the “expression of COX-2 gene” value (apoptosis-related genes) was “increased” and the “expression of IL-1β” value (apoptosis-related genes) was “increased”. The “expression of Mcl-1” value (apoptosis-related genes) was “increased”, the “expression of PIN gene” value (apoptosis-related genes) was “increased” and the “expression of p21” value (apoptosis-related genes) was “increased”. For the same compound, the “expression of p53 gene” value (apoptosis-related genes) was “decreased” and the expression of survivin (apoptosis-related genes) was “reduced”.

Source: patent US20060166934A1, “Composition comprising phytosphingosine derivatives for apoptosis induction” (Tae-Yoon Kim, priority 2002, published 2006)
